Test results from publication PMC9313812, “The Pseudo‐Natural Product Rhonin Targets RHOGDI” (Angewandte Chemie (International Ed. in English), 2022).

Tests used:
[1] = test system: RHO GTPases; test: Immunoblotting of total cellular RHO GTPase levels; type: cell-based; settings: 10 μM, 24 h
[2] = test system: Alpl expression in C3H10T1/2 cells; test: RT-qPCR of Alpl mRNA; type: cell-based, mouse; settings: 1.5 μM purmorphamine, 96 h
Experimental: Supplementary Figure S6 (related to Figure 5). Characterization of compound 7l (Rhonin).
(a) GLI-responsive reporter gene assay in SHH-LIGHT2 cells. (b) Influence of Rhonin on the expression of Alpl. C3H10T1/2 cells were treated with 1.5 µM purmorphamine and the compounds for 96 h prior to RT-qPCR to detect Alpl mRNA levels. Data were normalzed to Gapdh and Ap3d1 gene levels and are mean values (n = 3) ± SD. (c) Detection of cilia in NIH/3T3 cells. NIH/3T3 cells were cultured in serum reduced (0.5 % FCS) medium for 24 h to induce cilia formation, followed by a pre-treatment of cells with different concentrations of 7l or Vismodegib or DMSO as a control in serum reduced medium. […]
projections, after previous background subtraction. For quantification, cilia were identified and […]
Smoothened antibody were measured within these areas. […]
significances were assessed using an unpaired t-test (confidence interval of 95%) with the […]
replicates were performed and for each replicate at least 100 cilia per condition were analyzed.
Reverse transcription- quantitative PCR (RT-qPCR) […]
DNase I digestion step. The concentration of purified RNA was determined by means of the […]
QuantiTect Reverse Transcription Kit (Qiagen) according to the manufacturer’s protocol. […]
determined by means of quantitative RT-PCR using the QuantiFast SYBR Green PCR Kit […]

[3] = target: T1, RHOGDI1-mediated extraction of CDC42 (Homo sapiens, UniProt P52565); test: Liposome sedimentation assay: displacement of prenylated GDP-bound CDC42 by GST-RHOGDI1; type: biochemical; settings: 50 μM compound
T1 construct: made in house; host or cells: RHOGDI1: E. coli; prenylated CDC42: insect cells (TNAO38)
T1 sequence (P52565 whole entry): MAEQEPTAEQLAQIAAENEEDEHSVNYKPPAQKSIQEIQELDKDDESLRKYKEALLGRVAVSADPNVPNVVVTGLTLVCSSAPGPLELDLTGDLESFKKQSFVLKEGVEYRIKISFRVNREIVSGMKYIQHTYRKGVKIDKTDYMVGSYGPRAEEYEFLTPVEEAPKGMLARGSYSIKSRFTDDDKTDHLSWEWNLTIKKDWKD
Experimental: Supplementary Figure S4. Compound 7a impairs RHOGDI1 function. (a) Assay setup for the liposome sedimentation assay. (b) Displacement of prenylated GDP‐bound RAC1 from synthetic liposomes by GST-RHOGDI1 in the presence or absence of 50 μM 7a was measured using liposome floatation assay. Data is representative of three independent experiments.
Liposome-containing phase represented by fluorescent colour as result of 5% fluorescent NDB-PE was analysed by Western blotting. Data are representatives of three independent […]
experiments. (c-d) Displacement of prenylated
GDP‐bound RHO GTPases (RHOA and CDC42) from synthetic liposomes by GST‐RHOGDI1 […]
liposome sedimentation assay. Data is representative of three independent experiments. P: […]
Liposome sedimentation assay
Liposomes were prepared by self-assembly of the lipids (500 μg) containing 20% (w/w) phosphatidylethanolamine, 45% (w/w) phosphatidylcholine, 20% (w/w) phosphatidylserine, 10% (w/w) cholesterol, and 5% (w/w) phosphatidylinositol 4,5-bisphosphate. […] The resulting pellet and supernatant fractions were collected and analyzed by immunoblotting. […]
The resulting samples were centrifuged at 140000 x g for 1 h at 4 °C. The upper liposome‐ containing phase (detected by fluorescent NDB‐PE) was collected and analyzed by […]

Structure (SMILES)	Total levels of the three RHO GTPases (in words) [1]	Expression of the alkaline phosphatase gene Alpl (in words) [2]	Inhibition of RHOGDI1-mediated extraction of CDC42 (in words) [3]
COC(=O)C1(C(CC(=O)c2cccnc2)c2ccccc2)N=C(c2ccc(Br)cc2)C2C(=O)N(C)C(=O)C21 (stereo not drawn) [7l]	did not alter the total levels	inhibited the expression of the alkaline phosphatase gene	
COC(=O)C1(C(CC(=O)c2ccccc2)c2ccccc2)N=C(c2ccc(Br)cc2)C2C(=O)N(C)C(=O)C21 (stereo not drawn) [7a]			inhibited
